Laboratory results from patent publication US8394807B2, “Quinazoline inhibitors of BACE 1 and methods of using” (Purdue Research Foundation, priority 2008, dated 2013).

These compounds were tested against memapsin 2 (Homo sapiens, UniProt P56817) (assay: Inhibition of memapsin 2 catalytic activity toward fluorogenic substrate FS-2). Conditions: pH 4, 37° C., 20 minutes pre-incubation, tight-binding model; symbol outside parentheses; read-out: Activity against memapsin 2: Ki.
Assay type: biochemical
Protocol: Inhibition Of Memapsin 2. […] Potency of compounds were determined by measurement of their inhibition of memapsin 2 catalytic activity toward a fluorescent substrate. […] Briefly, assays were performed at pH 4, 37° C., by pre-incubation of memapsin 2 enzyme with compound for 20 minutes. Activity measure was initiated by addition of a fluorogenic substrate FS-2 (Bachem Americas, Torrance, Calif.). Fluorescent signal increase over time was measured as a rate of hydrolysis of the peptide substrate. […]

Chain of memapsin 2 (Homo sapiens, UniProt P56817) (P56817 46-501): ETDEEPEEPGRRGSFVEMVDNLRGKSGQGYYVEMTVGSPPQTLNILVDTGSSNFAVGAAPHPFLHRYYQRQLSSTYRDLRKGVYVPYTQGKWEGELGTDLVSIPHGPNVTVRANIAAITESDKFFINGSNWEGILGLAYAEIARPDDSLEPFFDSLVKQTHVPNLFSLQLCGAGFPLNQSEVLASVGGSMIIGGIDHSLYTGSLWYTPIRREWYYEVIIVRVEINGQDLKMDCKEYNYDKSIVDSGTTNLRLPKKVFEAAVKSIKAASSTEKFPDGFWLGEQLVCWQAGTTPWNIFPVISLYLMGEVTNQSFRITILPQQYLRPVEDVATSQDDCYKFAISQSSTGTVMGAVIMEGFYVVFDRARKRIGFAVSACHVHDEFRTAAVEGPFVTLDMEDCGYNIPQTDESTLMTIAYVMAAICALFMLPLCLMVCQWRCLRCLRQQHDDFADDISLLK

SMILES | Ki [nM]
CN(C(=O)OC[C@@H](c1ccccc1)N1Cc2cc(Oc3ccccc3)ccc2N=C1N)C1CCCCC1 [Inhibitor 0328] | < 5000
CN(CCC[C@@H](C1CCCOC1)N1Cc2cc(Oc3ccccc3)ccc2N=C1N)C1CCCCC1 (some centres unmarked) [Inhibitor 0408] | < 500
Cc1csc(CN(CCC[C@@H](C2CCCCC2)N2Cc3cc(Oc4ccccc4)ccc3N=C2N)C2CCCCC2)n1 [Inhibitor 409] | < 500
CN(CCC[C@@H](c1ccccc1)N1Cc2cc(Oc3ccccc3)ccc2N=C1N)C1CCCCC1 [Inhibitor 0418] | < 5000
CC(NCC[C@@H](C1CCCCC1)N1Cc2cc(Oc3ccccc3)ccc2N=C1N)c1ccccc1 (some centres unmarked) [Inhibitor 0438] | < 500
NC1=Nc2ccc(Oc3ccccc3)cc2CN1[C@@H](CCN(Cc1ccccc1)Cc1ccccc1)C1CCCCC1 [Inhibitor 0448] | < 500
Cc1nc(CN(CCC[C@@H](C2CCCCC2)N2Cc3cc(Oc4ccccc4)ccc3N=C2N)C2CCCCC2)c(C)o1 [Inhibitor 0509] | < 500
CN(CCC[C@@H](C1CCCCC1)N1Cc2cc(Oc3ccccc3)ccc2N=C1N)c1ccccc1 [Inhibitor 0538] | < 500
CN(CCCC(C1CCOC1)N1Cc2cc(Oc3ccccc3)ccc2N=C1N)C1CCCCC1 (centres unmarked) [Inhibitor 0568] | < 500
CN(CC[C@@H](C1CCCCC1)N1Cc2cc(Oc3ccccc3)ccc2N=C1N)Cc1ccccc1 [Inhibitor 0628] | < 500
CC(C)c1nc(CN(CCC[C@@H](C2CCCCC2)N2Cc3cc(Oc4ccccc4)ccc3N=C2N)C2CCCCC2)cs1 [Inhibitor 0659] | < 500
Cc1nc(C)c(CN(CCC[C@@H](C2CCCCC2)N2Cc3cc(Oc4ccccc4)ccc3N=C2N)C2CCCCC2)o1 [Inhibitor 0789] | < 500
Cc1nc(CCN(CCC[C@@H](C2CCCCC2)N2Cc3cc(Oc4ccccc4)ccc3N=C2N)C2CCCCC2)cs1 [Inhibitor 0809] | < 500
Cc1nc(CCN(CCC[C@@H](C2CCCCC2)N2Cc3cc(Oc4ccccc4)ccc3N=C2N)C2CCCCC2)co1 [Inhibitor 0909] | < 500
COCc1nc(CN(CCC[C@@H](C2CCCCC2)N2Cc3cc(Oc4ccccc4)ccc3N=C2N)C2CCCCC2)cs1 [Inhibitor 1099] | < 500
COCC(COC)N(C)C(=O)OC[C@@H](C1CCCCC1)N1Cc2cc(Oc3ccccc3)ccc2N=C1N [Inhibitor 1139] | < 5000
Cc1nc(CN(CCC[C@@H](C2CCCCC2)N2Cc3cc(Oc4cccnc4)ccc3N=C2N)C2CCCCC2)cs1 [Inhibitor 1209] | < 5000
Cc1nc(CN(CCC[C@@H](C2CCCCC2)N2Cc3cc(Oc4ccccn4)ccc3N=C2N)C2CCCCC2)cs1 [Inhibitor 1219] | < 5000

Results, then the compound that gave them:

Ki [nM] | SMILES
< 500 | Cc1csc(CN(C(=O)OC[C@@H](C2CCCCC2)N2Cc3cc(Oc4ccccc4)ccc3N=C2N)C2CCCCC2)n1 [Inhibitor 119]
< 50 | CN(CCC[C@@H](C1CCCCC1)N1Cc2cc(Oc3ccccc3)ccc2N=C1N)C1CCCCC1 [Inhibitor 0188]
< 500 | CN(C(=O)OC[C@@H](C1CCCOC1)N1Cc2cc(Oc3ccccc3)ccc2N=C1N)C1CCCCC1 (some centres unmarked) [Inhibitor 0318]
< 500 | NC1=Nc2ccc(Oc3ccccc3)cc2CN1[C@@H](CCNCC1CCCCC1)C1CCCCC1 [Inhibitor 0428]
< 50 | CN(C(=O)OC[C@@H](C1CCCCC1)N1Cc2cc(Oc3ccccc3)ccc2N=C1N)C1CCCCC1 [Inhibitor 0458]
< 500 | COC[C@@H](NC(=O)OC[C@@H](C1CCCCC1)N1Cc2cc(Oc3ccccc3)ccc2N=C1N)C(=O)OC [Inhibitor 0469]
< 5000 | Cc1nc(CN(C(=O)OC[C@@H](C2CCCCC2)N2Cc3cc(Oc4ccccc4)ccc3N=C2N)C2CCCCC2)co1 [Inhibitor 0519]
< 500 | CN(C(=O)OCC(C1CCOC1)N1Cc2cc(Oc3ccccc3)ccc2N=C1N)C1CCCCC1 (centres unmarked) [Inhibitor 0548]
< 5000 | Cc1nc(CN(C(=O)OC[C@@H](C2CCCCC2)N2Cc3cc(Oc4ccccc4)ccc3N=C2N)C2CCCCC2)cs1 [Inhibitor 0579]
< 500 | Cc1nc(CN(CCC[C@@H](C2CCCCC2)N2Cc3cc(Oc4ccccc4)ccc3N=C2N)C2CCCCC2)cs1 [Inhibitor 0589]
< 5000 | CN(C)CC[C@@H](C1CCCCC1)N1Cc2cc(Oc3ccccc3)ccc2N=C1N [Inhibitor 0618]
< 500 | CN(C(=O)OC[C@@H](C1CCCCC1)N1Cc2cc(Oc3ccccc3)ccc2N=C1N)C1CCCCC1O (some centres unmarked) [Inhibitor 0648]
< 500 | NC1=Nc2ccc(Oc3ccccc3)cc2CN1[C@@H](COC(=O)NC1CCCCC1)C1CCCCC1 [Inhibitor 0658]
< 500 | NC1=Nc2ccc(Oc3ccccc3)cc2CN1[C@@H](COC(=O)NC1CCCCC1O)C1CCCCC1 (some centres unmarked) [Inhibitor 0668]
< 500 | Cc1nc(CN(C(=O)OC[C@@H](C2CCCCC2)N2Cc3cc(Oc4ccccc4)ccc3N=C2N)C2CCCCC2)c(C)o1 [Inhibitor 908]
< 500 | Cc1ncoc1CN(CCC[C@@H](C1CCCCC1)N1Cc2cc(Oc3ccccc3)ccc2N=C1N)C1CCCCC1 [Inhibitor 0929]
< 500 | NC1=Nc2ccc(Oc3ccccc3)cc2CN1[C@@H](CCCN(Cc1cscn1)C1CCCCC1)C1CCCCC1 [Inhibitor 0979]
< 500 | COC[C@H](NC(=O)OC[C@@H](C1CCCCC1)N1Cc2cc(Oc3ccccc3)ccc2N=C1N)C(=O)OC [Inhibitor 0989]
< 500 | Cn1cc(CN(CCC[C@@H](C2CCCCC2)N2Cc3cc(Oc4ccccc4)ccc3N=C2N)C2CCCCC2)cn1 [Inhibitor 1049]
< 500 | NC1=Nc2ccc(Oc3ccccc3)cc2CN1[C@@H](CCCN(Cc1ccoc1)C1CCCCC1)C1CCCCC1 [Inhibitor 1379]
< 50 | NC1=Nc2ccc(Oc3ccccc3)cc2CN1[C@@H](CCCN(Cc1cn[nH]c1)C1CCCCC1)C1CCCCC1 [Inhibitor 1509]
< 50 | Cc1[nH]ncc1CN(CCC[C@@H](C1CCCCC1)N1Cc2cc(Oc3ccccc3)ccc2N=C1N)C1CCCCC1 [Inhibitor 1519]

The compounds below were run against T1, memapsin 2 (Cricetulus griseus, UniProt G3IAK4) (assay: Cellular Aβ IC50 determination (Aβ40 sandwich ELISA)). Conditions: symbol in parentheses; Chinese hamster ovary cells over-expressing human APP695 (London and Swedish mutations), Aβ40, 24 h; read-out: Activity against memapsin 2: (IC50).
T1 construct: endogenous in cells; host or cells: Chinese hamster ovary cells over-expressing human APP695 (London and Swedish mutations)
T1 sequence (G3IAK4 22-501): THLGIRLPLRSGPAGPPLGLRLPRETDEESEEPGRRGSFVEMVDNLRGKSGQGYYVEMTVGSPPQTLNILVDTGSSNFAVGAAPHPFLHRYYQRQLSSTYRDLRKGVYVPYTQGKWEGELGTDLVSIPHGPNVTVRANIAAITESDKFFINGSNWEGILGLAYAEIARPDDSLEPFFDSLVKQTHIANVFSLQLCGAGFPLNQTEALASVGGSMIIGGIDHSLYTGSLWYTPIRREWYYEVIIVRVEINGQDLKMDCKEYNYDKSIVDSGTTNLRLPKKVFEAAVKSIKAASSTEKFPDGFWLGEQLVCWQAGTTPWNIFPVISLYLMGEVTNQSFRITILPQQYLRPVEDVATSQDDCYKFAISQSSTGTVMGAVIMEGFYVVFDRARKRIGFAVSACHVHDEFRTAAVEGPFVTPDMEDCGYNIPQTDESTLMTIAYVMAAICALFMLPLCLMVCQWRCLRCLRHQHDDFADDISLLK
Assay type: cell-based
Protocol: Cellular Aβ C50 Determinations. The potency of compounds against memapsin 2 catalytic activity is determined in a cellular assay of Aβ production. […] Chinese hamster ovary cells that over-express human APP695 with the London and Swedish mutations are seeded in multi-well plates at 10% confluency. Compounds are dissolved in DMSO to concentrations near 1 mM, and diluted into culture media to a final concentration near 4 μM (final 0.4% DMSO). Compounds are diluted serially and applied to cells in multi-well plates 48 h after seeding. Incubation is continued in 5% CO2 at 37 degrees C. for 24 h. Aliquots are removed and assayed for Aβ40 content using a sandwich ELISA (BioSource International). Amount of Aβ40 over the range of concentration of compounds, relative to control incubations, are fit to a 4-parameter IC50 model.

SMILES | IC50 [nM]
CN(C(=O)OC[C@@H](c1ccccc1)N1Cc2cc(Oc3ccccc3)ccc2N=C1N)C1CCCCC1 [Inhibitor 0328] | < 5000
CN(CCC[C@@H](c1ccccc1)N1Cc2cc(Oc3ccccc3)ccc2N=C1N)C1CCCCC1 [Inhibitor 0418] | < 5000
NC1=Nc2ccc(Oc3ccccc3)cc2CN1[C@@H](CCN(Cc1ccccc1)Cc1ccccc1)C1CCCCC1 [Inhibitor 0448] | < 5000

Other lines, results leading:

IC50 [nM] | SMILES
< 50 | CN(CCC[C@@H](C1CCCCC1)N1Cc2cc(Oc3ccccc3)ccc2N=C1N)C1CCCCC1 [Inhibitor 0188]
< 5000 | CN(C(=O)OC[C@@H](C1CCCOC1)N1Cc2cc(Oc3ccccc3)ccc2N=C1N)C1CCCCC1 (some centres unmarked) [Inhibitor 0318]
> 5000 | CN(C(=O)OC[C@@H](C1CCCCC1)N1Cc2cc(Oc3ccccc3)ccc2N=C1N)C1CCCCC1 [Inhibitor 0458]
< 5000 | CN(C(=O)OCC(C1CCOC1)N1Cc2cc(Oc3ccccc3)ccc2N=C1N)C1CCCCC1 (centres unmarked) [Inhibitor 0548]
